Assays:
[1] = tested on: adult patients with Gaucher disease Type 3; assay: Clinical study in GD-3 patients: ataxia, SARA scale; format: in vivo, human; set-up: key to SARA Cumulative Score, Average Score excluding Patient 4 / SARA Cumulative Score / SARA Cumulative Score, Average Score: SARA, eight ataxia attributes summed, 0-40 scale; details: for SARA Cumulative Score: 15 mg/day + imiglucerase; for SARA Cumulative Score, Average Score: screening 2.83
[2] = tested on: plasma GL-3 (globotriaosylceramide); assay: Study 2: plasma GL-3 pharmacodynamics; format: in vivo, human
Protocol: The study enrolled and randomized 36 healthy adults (19 men and 17 women) (n=9 each to group).
Pharmacodynamic endpoints (plasma GL-1, GL-3, and GM3 concentrations) were assessed on Days 1-5, 8, 11, 13, and 14, at 0 hours […]; and on Day 15, at 24 hours after the Day 14 dose.

[3] = tested on: healthy, human volunteers; assay: Phase 1 studies: safety profile; format: in vivo
Protocol: Compound 2 is also known as venglustat.
In all studies, safety profile was assessed by monitoring treatment-emergent adverse events (TEAEs) through 10 days after last dose of study medication, including serious adverse events [SAEs]), ECG monitoring, laboratory values, and physical examinations.

## CC(C)(NC(=O)O[C@@H]1CN2CCC1CC2)c1csc(-c2ccc(F)cc2)n1 [Compound 2, (S)-quinuclidin-3-yl 2-(2-(4-fluorophenyl)thiazol-4-yl)propan-2-ylcarbamate]
[1]; 52 weeks, 11 patients
  patients with positive correlation between reduction in CSF GL-1 and SARA score: 8 of 11
[1]; 52 weeks, N = 6, 15 mg/day + imiglucerase
  patients showing improvements in ataxia: 5 of 6
[1]; Patient 1, Week 26, screening 3.0
  SARA Cumulative Score: 1.0
[1]; Patient 2, Week 26, screening 3.0
  SARA Cumulative Score: 2.0
[1]; Patient 2, Week 52, screening 3.0
  SARA Cumulative Score: 1.5
[1]; Patient 3, Week 26, screening 3.5
  SARA Cumulative Score: 0.0
[1]; Patient 3, Week 52, screening 3.5
  SARA Cumulative Score: 0.0
[1]; Patient 4, Week 26 (baseline 1)
  SARA stance score: 1
[1]; Patient 4, Week 26, screening 3.0
  SARA Cumulative Score: 5.0
[1]; Patient 4, Week 52 (baseline 1; left knee pain, injured toe)
  SARA stance score: 5
[1]; Patient 6, Week 26, screening 4.0
  SARA Cumulative Score: 2.0
[1]; Patient 6, Week 52, screening 4.0
  SARA Cumulative Score: 3.0
[1]; Patient 7, Week 26, screening 5.5
  SARA Cumulative Score: 7.5
[1]; Patient 7, Week 52, screening 5.5
  SARA Cumulative Score: 5.0
[1]; Patient 8, Week 26, screening 2.0
  SARA Cumulative Score: 0.5
[1]; Patient 8, Week 52, screening 2.0
  SARA Cumulative Score: 0
[1]; Patient 9, Week 26, screening 0.0
  SARA Cumulative Score: 0.0
[1]; Patient 9, Week 52, screening 0.0
  SARA Cumulative Score: 0.0
[1]; Patient 10, Week 26, screening 2.0
  SARA Cumulative Score: 2.0
[1]; Patient 10, Week 52, screening 2.0
  SARA Cumulative Score: 1.0
[1]; Patient 11, Week 26, screening 3.0
  SARA Cumulative Score: 3.0
[1]; Patient 11, Week 52, screening 3.0
  SARA Cumulative Score: 2.0
[1]; Patients 1-6, Week 26
  SARA Cumulative Score, Average Score: 1.67
[1]; Patients 1-6, Week 52
  SARA Cumulative Score, Average Score: 2.00
[1]; Week 26, screening 2.80
  SARA Cumulative Score, Average Score excluding Patient 4: 1.00
[1]; Week 52, Excluding Patient 5
  patients exhibiting an improvement in ataxia: 4 out of 5
[1]; Week 52, five new patients excluding Patient 9
  patients exhibiting an improvement in ataxia: 4 out of 4
[1]; two patients, week 26 and week 52 compared to baseline
  gait on videotaped straight-line walk: steadier, better coordinated, and faster gait
[2]; Day 15, 5-mg dose group (3 at baseline)
  subjects with GL-3 values below LLOQ: 9 subjects
[2]; Day 15, 10-mg dose group (1 at baseline)
  subjects with GL-3 values below LLOQ: 7 subjects
[2]; Day 15, 20-mg dose group (6 at baseline)
  subjects with GL-3 values below LLOQ: 9 subjects
[2]; all Compound 2 dose groups, low baseline values relative to LLOQ
  Plasma GL-3 over time: decreased with time
[3]; all Phase 1 studies
  Vital signs: no relevant changes from baseline
  hematologic or biochemical abnormalities: No clinically relevant hematologic or biochemical abnormalities
[3]; all Phase 1 studies, through 10 days after last dose
  deaths, SAEs, severe TEAEs, TEAEs leading to study discontinuation: no deaths, SAEs, severe TEAEs, or TEAEs leading to study discontinuation
[3]; single ascending dose and food effect studies, multiple dose study: no statistically significant change versus placebo
  ECG parameters: no relevant changes

From patent publication US12083115B2, “Methods for treating neurological symptoms associated with lysosomal storage diseases” (Genzyme Corporation, priority 2020, dated 2024)
